Results reported in US8586505B2 (SDS Biotech K. K., priority 2009, dated 2013).

What was measured:
[1] = system: Phytophthora infestans; assay: whole plant or invertebrate; type: in vivo; conditions: in Solanum lycopersicum, 96 h, read-out: Determination of control effect (preventive value)
[2] = system: Pseudoperonospora cubensis; assay: Test of examining control effect on Pseudoperonospora cubensis (potted cucumber plants); type: in vivo; conditions: 96 h, 10% wettable powder adjusted to 125 ppm, 15 ml/pot sprayed on potted cucumber plants one day before spray inoculation, assessed after 1 day wet chamber and 3 days greenhouse, read-out: Determination of control effect (preventive value) on Pseudoperonospora cubensis
Method in brief: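 Preventive treatment: 125 ppm sample agent solution (from 10% wettable powder) sprayed at 15 ml/pot on 2.5-leaf Sagamihanjiro cucumbers, then P. cubensis inoculated next day at 1.0×10^4 cells/ml. Incubation was 1 day wet at 21° C plus 3 days greenhouse. Lesion area rate compared with untreated gives preventive value (≥60% high).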

[3] = system: Sphaerotheca fuliginea; assay: Test of examining control effect on Sphaerotheca fuliginea (potted cucumber plants); type: in vivo; conditions: Podosphaera fuliginea, 336 h; 10% wettable powder adjusted to 125 ppm, 15 ml/pot sprayed on potted cucumber plants one day before spray inoculation; assessed after 14 days in greenhouse; read-out: Determination of control effect (preventive value) on Sphaerotheca fuliginea
Method in brief: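 Control effect rated high at preventive value 60–100% and low below 60%, from lesion area relative to untreated plants 14 days after spray inoculation with S. fuliginea (1.0×10^5 cells/ml). Compound applied at 125 ppm as wettable-powder spray one day before inoculation, on 2nd-leaf-stage Sagamihanjiro cucumber.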

| Compound | pest or weed control at 125 ppm [1] [%] | pest or weed control at 125 µg/mL [2] [%] | pest or weed control at 125 µg/mL [3] [%] | melting point [°C] |
| --- | --- | --- | --- | --- |
| CC(C)(C)[Si](C)(C)C#CCCNc1ncnc2sccc12 [compound 5] | 0 to 60 | 60 to 100 | 60 to 100 | 190 to 192 |
| FC(F)(F)c1cccc(Oc2nc(C#CCCNc3ncnc4ccccc34)cs2)c1 [compound 219] | 0 to 60 | 60 to 100 | 60 to 100 | 106 to 108 |
| OCc1ccc(C#CCCNc2ncnc3ccccc23)cc1 [compound 132] | 0 to 60 | 60 to 100 | 0 to 60 | 69 to 71 |
| CCOC(=O)c1ccc(C#CCCNc2ncnc3ccccc23)cc1 [compound 129] | 0 to 60 | 60 to 100 | 0 to 60 | 137 to 138 |
| CCOC(=O)c1sc(C#CCCNc2ncnc3ccccc23)nc1C [compound 214] | 0 to 60 | 60 to 100 | 60 to 100 | 139 to 140 |
| Cc1cccc(C#CCCNc2ncnc3sccc23)c1 [compound 18] | 0 to 60 | 60 to 100 | 60 to 100 | 120 to 123 |
| Fc1cccc(F)c1C#CCCNc1ncnc2sccc12 [compound 42] | 60 to 100 | 60 to 100 |  | 179 to 181 |
| CCOC(=O)c1cnc(C#CCCNc2ncnc3ccccc23)s1 [compound 213] | 0 to 60 | 60 to 100 | 60 to 100 | 113 to 114 |
| C=C(C)CCc1ccccc1C#CCCNc1ncnc2ccccc12 [compound 105] | 60 to 100 | 60 to 100 | 60 to 100 | 92 to 94 |
| Clc1cccc(C#CCCNc2ncnc3ccccc23)c1Cl [compound 171] | 60 to 100 | 60 to 100 | 60 to 100 | 175 to 176 |
| N#Cc1ccc(Oc2nc(C#CCCNc3ncnc4ccccc34)cs2)cc1 [compound 223] | 60 to 100 | 60 to 100 | 60 to 100 | 55 to 57 |
| C(#Cc1ccc2ccccc2c1)CCNc1ncnc2ccccc12 [compound 183] | 60 to 100 | 60 to 100 | 60 to 100 | 159 to 160 |
| C(#Cc1csc(-c2ccoc2)n1)CCNc1ncnc2sccc12 [compound 78] | 0 to 60 | 60 to 100 | 60 to 100 | 140 to 142 |
| COc1cccc(Oc2nc(C#CCCNc3ncnc4ccccc34)cs2)c1 [compound 216] | 60 to 100 | 60 to 100 | 60 to 100 | 77 to 79 |
| C(#Cc1csc(-c2ccsc2)n1)CCNc1ncnc2sccc12 [compound 80] | 0 to 60 | 60 to 100 | 60 to 100 | 55 to 56 |
| C(#Cc1nccs1)CCNc1ncnc2sccc12 [compound 62] | 60 to 100 | 60 to 100 | 60 to 100 | 128 to 129 |
| CSc1cccc(C#CCCNc2ncnc3ccccc23)c1 [compound 116] | 60 to 100 | 60 to 100 | 60 to 100 | 141 to 142 |
| Clc1ccc(C#CCCNc2ncnc3ccccc23)c(Cl)c1 [compound 172] | 60 to 100 | 60 to 100 | 60 to 100 | 182 to 183 |

| Compound | pest or weed control at 125 ppm [1] [%] | pest or weed control at 125 µg/mL [2] [%] | pest or weed control at 125 µg/mL [3] [%] | melting point [°C] |
| --- | --- | --- | --- | --- |
| COCc1ccccc1C#CCCNc1ncnc2ccc(I)cc12 [compound 322] | 0 to 60 | 60 to 100 | 60 to 100 | 121 to 123 |
| FC(F)(F)c1ccc(Cl)c(C#CCCNc2ncnc3ccccc23)c1 [compound 176] | 0 to 60 | 60 to 100 | 60 to 100 | 144 to 145 |
| Fc1cccc(Oc2nc(C#CCCNc3ncnc4ccccc34)cs2)c1 [compound 225] | 60 to 100 | 60 to 100 | 60 to 100 | 134 to 136 |
| Clc1cc(NCCC#Cc2ccccc2)ncn1 [compound 358] | 0 to 60 | 0 to 60 | 60 to 100 | 118 to 120 |
| OCc1cc(C#CCCNc2ncnc3ccccc23)co1 [compound 209] | 0 to 60 | 60 to 100 | 0 to 60 | 135 to 147 |
| C(#Cc1cccnc1)CCNc1ncnc2sccc12 [compound 56] | 0 to 60 | 60 to 100 |  | 138 to 140 |
| Fc1ccc(C#CCCNc2ncnc3sccc23)c(F)c1 [compound 41] | 60 to 100 | 60 to 100 |  | 177 to 178 |
| C(#Cc1csc(-c2ccco2)n1)CCNc1ncnc2sccc12 [compound 77] | 0 to 60 |  | 0 to 60 | 53 to 55 |
| O=[N+]([O-])c1cccc(C#CCCNc2ncnc3sccc23)c1 [compound 39] | 60 to 100 | 60 to 100 |  | 171 to 172 |
| Fc1cc(C#CCCNc2ncnc3sccc23)cc(F)c1F [compound 43] | 60 to 100 | 60 to 100 |  | 158 to 159 |
| O=[N+]([O-])c1ccc(C#CCCNc2ncnc3sccc23)cc1 [compound 40] | 60 to 100 | 60 to 100 |  | 184 to 185 |
| C[Si](C)(C)c1ccc(C#CCCNc2ncnc3ccccc23)cc1 [compound 111] | 0 to 60 | 60 to 100 | 60 to 100 |  |
| Cc1cccc2c(NC(C)CC#Cc3ccc(Cl)cc3C(F)(F)F)ncnc12 (stereo not shown) [compound 354] | 0 to 60 | 60 to 100 | 60 to 100 |  |
| CC(CC#Cc1ccccc1)Nc1ncnc(C(C)F)c1I (stereo not shown) [compound 381] | 60 to 100 | 60 to 100 | 60 to 100 |  |
| N#Cc1ccccc1Oc1nc(C#CCCNc2ncnc3ccccc23)cs1 [compound 221] | 0 to 60 | 60 to 100 | 60 to 100 |  |
| COCc1ccccc1C#CCCNc1ncnc(C)c1Cl [compound 362] | 60 to 100 | 60 to 100 | 60 to 100 |  |
| Cc1ncnc(NC(C)CC#Cc2ccccc2)c1Cl (stereo not shown) [compound 389] | 0 to 60 | 60 to 100 | 60 to 100 |  |
